Results published in patent US9328122B2, “7-substituted Hanfangichin B derivative, and preparation method and use thereof” (HANGZHOU BENSHENG PHARMACEUTICAL CO., LTD., priority 2012, dated 2016).
Values after ≈ are worked out from the molar mass of the structure shown.

Experiments:
[1] = tested on: CNE (nasopharyngeal carcinoma) cells; experiment: MTT cell growth inhibition, solid tumor cells; format: cell-based, human; details: Homo sapiens, CNE, 72 h, MTT; for IC50: read-out: IC50; for IC90: read-out: IC90
From the text: (§1) Hep-2 (laryngeal carcinoma), A549 (human lung cancer), CaES-17 (esophageal cancer cell), PC-3 (prostate cancer), CNE (nasopharyngeal carcinoma cell) and SK-OV-3 (ovarian cancer cell), all of which were purchased from China Center For Type Culture Collection; RKO (human colon adenocarcinoma cell), MGC-803 (human gastric cancer cell), MG-63 (osteosarcoma), and U87-MG (malignant glioma cell), all of which were purchased from Fuxiang Bio-tech Co. Ltd., Shanghai, China; PANC-1 (pancreatic cancer), Becap37 (human breast cancer cell), Hela (human cervical cancer cell) and Hep G2 (human liver cancer cell), all of which were donated by Cancer Research Institute of Zhejiang University, China.
(§2) 6000 well-growing human solid tumor cells were obtained and inoculated into wells of a 96-well cell culture plate. The culture medium was DMEM High Glucose cell culture medium containing 10% fetal bovine serum. The plate was placed in a carbon dioxide cell incubator (5% CO2) at 37° C. and incubated for 24 hours. After added with 7-substituted fangchinoline derivatives of different concentration and mixing uniformly, the plate was placed in a carbon dioxide cell incubator (5% CO2) at 37° C. and incubated for 72 hours. Then the viable cell concentration was determined by the MTT method.

[2] = tested on: PANC-1 (pancreatic cancer) cells; experiment: MTT cell growth inhibition, solid tumor cells; format: cell-based, human; details: Homo sapiens, PANC-1, 72 h, MTT; for IC50: read-out: IC50; for IC90: read-out: IC90
From the text: as §1, §2

[3] = tested on: CaEs-17 (esophageal cancer) cells; experiment: MTT cell growth inhibition, solid tumor cells; format: cell-based, human; details: Homo sapiens, CaEs17, CaEs-17, 72 h, MTT; for IC50: read-out: IC50; for IC90: read-out: IC90
From the text: as §1, §2

[4] = tested on: PC-3 (prostate cancer) cells; experiment: MTT cell growth inhibition, solid tumor cells; format: cell-based, human; details: Homo sapiens, PC-3, 72 h, MTT; for IC50: read-out: IC50; for IC90: read-out: IC90
From the text: as §1, §2

[5] = tested on: SK-OV-3 (ovarian cancer) cells; experiment: MTT cell growth inhibition, solid tumor cells; format: cell-based, human; details: Homo sapiens, SK-OV-3, 72 h, MTT; for IC50: read-out: IC50; for IC90: read-out: IC90
From the text: as §1, §2

[6] = tested on: tumor; experiment: Antitumor activity compared with fangchinoline, overall statement; format: cell-based; details: tumor type not specified
[7] = tested on: MG-63 (osteosarcoma) cells; experiment: MTT cell growth inhibition, solid tumor cells; format: cell-based; details: Homo sapiens, MG-63, 72 h, MTT; for IC50: read-out: IC50; for IC90: read-out: IC90
From the text: as §1, §2

[8] = tested on: U87-MG (malignant glioma) cells; experiment: MTT cell growth inhibition, solid tumor cells; format: cell-based; details: Homo sapiens, U-87 MG, U87-MG, 72 h, MTT; for IC50: read-out: IC50; for IC90: read-out: IC90
From the text: as §1, §2

[9] = tested on: A549 (human lung cancer) cells; experiment: MTT cell growth inhibition, solid tumor cells; format: cell-based; details: Homo sapiens, A549, 72 h, MTT; for IC50: read-out: IC50; for IC90: read-out: IC90
From the text: as §1, §2

[10] = tested on: Hep-2 (laryngeal carcinoma) cells; experiment: MTT cell growth inhibition, solid tumor cells; format: cell-based; details: Homo sapiens, Hep-2, 72 h, MTT; for IC50: read-out: IC50; for IC90: read-out: IC90
From the text: as §1, §2

[11] = tested on: Becap-37 (human breast cancer) cells; experiment: MTT cell growth inhibition, solid tumor cells; format: cell-based; details: Homo sapiens, Becap-37, 72 h, MTT; for IC50: read-out: IC50; for IC90: read-out: IC90
From the text: as §1, §2

[12] = tested on: MGC-803 (human gastric cancer) cells; experiment: MTT cell growth inhibition, solid tumor cells; format: cell-based; details: MGC-803, 72 h, MTT; for IC50: read-out: IC50; for IC90: read-out: IC90
From the text: as §1, §2

[13] = tested on: Hep G2 (human liver cancer) cells; experiment: MTT cell growth inhibition, solid tumor cells; format: cell-based; details: Homo sapiens, HepG2, Hep G2, 72 h, MTT; for IC50: read-out: IC50; for IC90: read-out: IC90
From the text: as §1, §2

[14] = tested on: RKO (human colon adenocarcinoma) cells; experiment: MTT cell growth inhibition, solid tumor cells; format: cell-based; details: Homo sapiens, RKO, 72 h, MTT; for IC50: read-out: IC50; for IC90: read-out: IC90
From the text: as §1, §2

[15] = tested on: Hela (human cervical cancer) cells; experiment: MTT cell growth inhibition, solid tumor cells; format: cell-based; details: Homo sapiens, Hela, 72 h, MTT; for IC50: read-out: IC50; for IC90: read-out: IC90
From the text: as §1, §2

[16] = tested on: K562/ADR (K562adr, drug-resistant chronic myeloid leukemia) cells; experiment: MTT cell growth inhibition, leukemia cells; format: cell-based; details: Homo sapiens, K562/ADR, 72 h, MTT; for IC50: read-out: IC50; for IC90: read-out: IC90
From the text: (§3) Leukemia cell lines: leukemia cell lines: K562adr (drug-resistant, chronic myeloid leukemia, CML), NB4 (acute promyelocytic leukemia, AML), Kasumi-1 (acute myeloid leukemia M2 type, AML-M2), Jurkat (acute lymphoblastic leukemia, ALL), all of which were donated by Cancer Research Institute of Zhejiang University, China; and H9 (acute lymphoblastic leukemia, ALL), which was purchased from China Center for Type Culture Collection.
(§4) Reagents: The standard sample of fangchinoline (FAN) was purchased from Ci Yuan Biotechnology Co., Ltd., Shaanxi, China; and the 7-substituted fangchinoline derivatives according to the present invention.
(§5) 6000 well-growing leukemia cells were obtained and inoculated into wells of a 96-well cell culture plate. The culture medium was a RPMI-1640 cell culture medium containing 10% fetal bovine serum. After adding the 7-substituted fangchinoline derivatives of different concentrations the next day and mixing uniformly, the plate was placed in a carbon dioxide cell incubator (5% CO2) at 37° C. and incubating for 72 hours. Then the viable cell concentration was determined by the MTT method.

[17] = tested on: NB4 (acute promyelocytic leukemia) cells; experiment: MTT cell growth inhibition, leukemia cells; format: cell-based; details: Homo sapiens, NB4, 72 h, MTT; for IC50: read-out: IC50; for IC90: read-out: IC90
From the text: as §3, §4, §5

[18] = tested on: RPMI 8226 (multiple myeloma) cells; experiment: MTT cell growth inhibition, multiple myeloma cells; format: cell-based, human; details: Homo sapiens, RPMI 8226, 72 h, MTT; for IC50: read-out: IC50; for IC90: read-out: IC90
Experimental: Myeloma cell lines: RPMI8226 (multiple myeloma), purchased from Fuxiang Bio-tech Co. Ltd., Shanghai, China.
6000 well-growing cells were obtained and inoculated into wells of a 96-well cell culture plate. The culture medium was a RPMI-1640 cell culture medium containing 10% fetal bovine serum. After adding the 7-substituted fangchinoline derivatives of different concentrations the next day and mixing uniformly, the plate was placed in a carbon dioxide cell incubator (5% CO2) at 37° C. and incubated for 72 hours. Then the viable cell concentration was determined by the MTT method.

Row | SMILES | IC50 [1] | IC90 [1] | IC50 [2] | IC90 [2] | IC50 [3] | IC90 [3] | IC50 [4] | IC90 [4] | IC50 [5] | IC90 [5] | antitumor activity compared with that of fangchinoline [6] | IC50 [7] | IC90 [7] | IC50 [8] | IC90 [8] | IC50 [9] | IC90 [9] | IC50 [10] | IC90 [10] | IC50 [11] | also measured
1 | COc1ccc2cc1Oc1ccc(cc1)C[C@H]1c3cc(c(OC)cc3CCN1C)Oc1c(OS(=O)(=O)c3ccc(C)cc3)c(OC)cc3c1[C@H](C2)N(C)CC3 [BS-FC-102] | 3.5 µg/mL (≈ 4.59 µM) | 6.9 µg/mL (≈ 9.04 µM) | 3.16 µg/mL (≈ 4.14 µM) | 6.75 µg/mL (≈ 8.85 µM) | 2.47 µg/mL (≈ 3.24 µM) | 7.91 µg/mL (≈ 10.4 µM) | 3.17 µg/mL (≈ 4.16 µM) | 5.85 µg/mL (≈ 7.67 µM) | 1.92 µg/mL (≈ 2.52 µM) | 8.07 µg/mL (≈ 10.6 µM) | significantly superior | 3.18 µg/mL (≈ 4.17 µM) | 4.83 µg/mL (≈ 6.33 µM) | 1.79 µg/mL (≈ 2.35 µM) | 5.39 µg/mL (≈ 7.06 µM) | 2.41 µg/mL (≈ 3.16 µM) | 6.55 µg/mL (≈ 8.59 µM) | 3.99 µg/mL (≈ 5.23 µM) | 11.1 µg/mL (≈ 14.5 µM) | 2.49 µg/mL (≈ 3.26 µM) | IC90 [11]: 4 µg/mL (≈ 5.24 µM); IC50 [12]: 1.71 µg/mL (≈ 2.24 µM); IC90 [12]: 4.95 µg/mL (≈ 6.49 µM); IC50 [13]: 1.56 µg/mL (≈ 2.04 µM); IC90 [13]: 3.94 µg/mL (≈ 5.16 µM); IC50 [14]: 1.44 µg/mL (≈ 1.89 µM); IC90 [14]: 2.33 µg/mL (≈ 3.05 µM); IC50 [15]: 1.44 µg/mL (≈ 1.89 µM); IC90 [15]: 3.39 µg/mL (≈ 4.44 µM); IC50 [16]: 0.4 µg/mL (≈ 0.524 µM); IC90 [16]: 3.03 µg/mL (≈ 3.97 µM); IC50 [17]: 0.38 µg/mL (≈ 0.498 µM); IC90 [17]: 0.94 µg/mL (≈ 1.23 µM); IC50 [18]: 0.14 µg/mL (≈ 0.184 µM); IC90 [18]: 0.77 µg/mL (≈ 1.01 µM)
2 | COc1ccc2cc1Oc1ccc(cc1)C[C@H]1c3cc(c(OC)cc3CCN1C)Oc1c(OS(=O)(=O)c3ccccc3)c(OC)cc3c1[C@H](C2)N(C)CC3 [BS-FC-104] | 2.5 µg/mL (≈ 3.34 µM) | 4.9 µg/mL (≈ 6.54 µM) | 2.01 µg/mL (≈ 2.68 µM) | 10.8 µg/mL (≈ 14.4 µM) | 2 µg/mL (≈ 2.67 µM) | 7.42 µg/mL (≈ 9.91 µM) | 2.5 µg/mL (≈ 3.34 µM) | 5.51 µg/mL (≈ 7.36 µM) | 1.88 µg/mL (≈ 2.51 µM) | 3.79 µg/mL (≈ 5.06 µM) | significantly superior | 2.71 µg/mL (≈ 3.62 µM) | 3.88 µg/mL (≈ 5.18 µM) | 1.63 µg/mL (≈ 2.18 µM) | 4.5 µg/mL (≈ 6.01 µM) | 1.57 µg/mL (≈ 2.1 µM) | 3.94 µg/mL (≈ 5.26 µM) | 3.18 µg/mL (≈ 4.25 µM) | 10.2 µg/mL (≈ 13.6 µM) | 1.92 µg/mL (≈ 2.56 µM) | IC90 [11]: 3.94 µg/mL (≈ 5.26 µM); IC50 [12]: 1.36 µg/mL (≈ 1.82 µM); IC90 [12]: 4.28 µg/mL (≈ 5.72 µM); IC50 [13]: 1.44 µg/mL (≈ 1.92 µM); IC90 [13]: 3.9 µg/mL (≈ 5.21 µM); IC50 [14]: 0.74 µg/mL (≈ 0.988 µM); IC90 [14]: 1.76 µg/mL (≈ 2.35 µM); IC50 [15]: 1 µg/mL (≈ 1.34 µM); IC90 [15]: 3.42 µg/mL (≈ 4.57 µM); IC50 [16]: 0.42 µg/mL (≈ 0.561 µM); IC90 [16]: 2.65 µg/mL (≈ 3.54 µM); IC50 [17]: 0.28 µg/mL (≈ 0.374 µM); IC90 [17]: 0.92 µg/mL (≈ 1.23 µM); IC50 [18]: 0.12 µg/mL (≈ 0.16 µM); IC90 [18]: 0.5 µg/mL (≈ 0.668 µM)
3 | COc1ccc2cc1Oc1ccc(cc1)C[C@H]1c3cc(c(OC)cc3CCN1C)Oc1c(OCc3cccc(F)c3F)c(OC)cc3c1[C@H](C2)N(C)CC3 [BS-FC-204] | 2.7 µg/mL (≈ 3.67 µM) | 5.2 µg/mL (≈ 7.08 µM) | 2.23 µg/mL (≈ 3.03 µM) | 6.85 µg/mL (≈ 9.32 µM) | 4.6 µg/mL (≈ 6.26 µM) | 14.5 µg/mL (≈ 19.8 µM) | 3.8 µg/mL (≈ 5.17 µM) | 6.39 µg/mL (≈ 8.7 µM) | 12.2 µg/mL (≈ 16.6 µM) | 16 µg/mL (≈ 21.8 µM) | significantly superior | 2.6 µg/mL (≈ 3.54 µM) | 3.5 µg/mL (≈ 4.76 µM) | 2.38 µg/mL (≈ 3.24 µM) | 9.1 µg/mL (≈ 12.4 µM) | 2.16 µg/mL (≈ 2.94 µM) | 3.94 µg/mL (≈ 5.36 µM) | 3.18 µg/mL (≈ 4.33 µM) | 8.31 µg/mL (≈ 11.3 µM) | 4.87 µg/mL (≈ 6.63 µM) | IC90 [11]: 7.89 µg/mL (≈ 10.7 µM); IC50 [12]: 2.94 µg/mL (≈ 4 µM); IC90 [12]: 8.5 µg/mL (≈ 11.6 µM); IC50 [13]: 3.73 µg/mL (≈ 5.08 µM); IC90 [13]: 7.96 µg/mL (≈ 10.8 µM); IC50 [14]: 1.66 µg/mL (≈ 2.26 µM); IC90 [14]: 2.95 µg/mL (≈ 4.01 µM); IC50 [15]: 0.5 µg/mL (≈ 0.68 µM); IC90 [15]: 1 µg/mL (≈ 1.36 µM); IC50 [16]: 0.38 µg/mL (≈ 0.517 µM); IC90 [16]: 1.92 µg/mL (≈ 2.61 µM); IC50 [17]: 0.39 µg/mL (≈ 0.531 µM); IC90 [17]: 2.57 µg/mL (≈ 3.5 µM); IC50 [18]: 0.42 µg/mL (≈ 0.572 µM); IC90 [18]: 1.58 µg/mL (≈ 2.15 µM)
